We go through seven molecules from patent US6004999A, “Triptolide derivatives useful in the treatment of autoimmune diseases” (priority 1998, dated 1999).

Values after ≈ are worked out from the molar mass of the structure shown.

As a reminder, the % Inhibition is the percentage by which the read-out fell short of the control.

Test [1] concerns immunosuppressive activity. The note with it: in conjunction with another immunosuppressive agent (cyclosporin A, FK506, etc.); WO 94/26265; cited from earlier work.
A further test relates to IL-2 production. As to the kind of experiment: Interleukin-2 assay: IL-2 production by PHA/TPA-stimulated cells (ELISA). The class given is cell-based, human. The note with it: PHA 10 μg/mL and 10^-8 M TPA stimulation; 16-24 hours. As to the method: (§1) Jurkat E6-1 cell line (ATCC), a human leukemic T cell line or lymphocytes prepared from fresh human blood, are grown in complete culture medium consisting of RPMI-1640 (Mediatech) supplemented with 10% v/v fetal bovine serum (HyClone, Logen, Vermont), penicillin (100 units/mL), streptomycin ([…]), and 2mM L-glutamine (GIBCO, Grand Island, N.Y.). The cells are grown to a concentration of between 1.2 to 1.8×10^6 cells/mL before use. The cells are then centrifuged at low speed and resuspended to a concentration of 1.25×10^6 cells/mL in fresh medium.
(§2) The compounds to be tested are dissolved in DMSO, and water is added to make a 50% DMSO/water solution. The compounds are then diluted in sterile water such that the DMSO concentrations are less then 0.05%. The cells at a concentration of 1.25×10^6 cells/mL are stimulated with phytohemagglutinin 10 μg/mL (PHA) and 10^-8 M phorbol ester (12-O-tetradecanoylphorbol 13-acetate: TPA), (Sigma, St. Louis, Mo.). The compounds are then added and the cells are plated in flat-bottom tissue culture plates (Falcon, Lincoln Park, N.J.), with 250,000 cells/well. Plates are then incubated at 37° C. in a 5% CO2 atmosphere.
After incubation (16-24 hours), the cells are assayed for IL-2 production and cell viability (MTT). IL-2 production is assayed utilizing a solid phase ELISA immunoassay, sold in kit form by R&D Systems, Inc., Minneapolis, Minn.
For orientation: An ELISA detects its analyte on a solid surface through an enzyme-linked reagent.

Test [2] in a line: Percent change in body weight in the adjuvant-induced arthritis rat test. The note with it: between day 1 and day 21, arthritic CMC control 17.9, normal non-arthritic animals 32.0. The class given is in vivo, rat (male Wistar-Lewis). On the procedure: (§3) Following generally the procedure of Pearson and Wood, Arth. Rheum., 2, 44 (1959), the anti-inflammatory activity of the following compounds was determined in a rat model of adjuvant-induced arthritis. Male Wistar-Lewisrats (Mollegaard, Breeding Centre Ltd, BIBY, DK 4623 LI, SKENSVED, P.P. Box 28, DK) with a body weight between 160 g and 200 g are used. Freund's adjuvant (0.1 mL, 6 mg Mycobacterium smegmatis suspension per mL in heavy white paraffin oil, Merck/Darmstadt) was injected into the base of the tail. Between day 10 and day 14 of the test, immunopathological processes let to chronic inflammation, especially in the form of arthritic and periarthritic symptoms in all parts of the body. The animals received standardized food Altromin-R (Altrogge, Lage) and had free access to water. The compounds were administered i.p. (a suspension in carboxymethyl cellulose solution in an injection volume of 0.5 mL/100 g body weight) on 12 consecutive days, starting with the day of the adjuvant injection. On day 1 and day 18 of the study, the volume of both hind paws and the body weight were recorded, and in addition on day 18 the arthritis index. Cyclosporin A and Prednisolone were used as standard compounds. In addition, table IV presents the percent change in body weight (weight gain) between day 1 and day 21 of the above test.

For test [3], the system named is rat model of adjuvant-induced arthritis. As to the kind of experiment: Anti-inflammatory activity in the rat model of adjuvant-induced arthritis. The class given is in vivo, rat (male Wistar-Lewis). Particulars: 12 consecutive days. On the procedure: as §3
Test [4] deals with Jurkat E6-1 cell line or lymphocytes prepared from fresh human blood. The test is described as follows: Cell viability (MTT mitochondrial enzyme assay). The note with it: cell viability after 16-24 hours incubation; MTT 4 hours. The class given is cell-based. On the procedure:
as §1, §2
Cell viability is measured by the use of a mitochondrial enzyme assay. After removal of the supernatant for the IL-2 assay, Cell Titer 96 (a commercial solution of MTT obtained from Promega, Madison, Wis.), is added to the plates and incubated for 4 hours at 37° C. A solubilization solution is then added and incubated overnight. The plates are then read on an ELISA plate reader at a wavelength of 570 nm. Table II presents the results for the lnterleukin-2 assay, the cell viability assay and the ratio of cell viability/IL-2 inhibition.

The next test deals with lymphocyte proliferation. Particulars: Yang et al. 1992, 1994; cited from earlier work.

With `C[C@@H](CO)[C@]12O[C@H]1[C@@H]1O[C@]13[C@]1(O[C@H]1C[C@H]1C4=C(CC[C@@]13C)C(=O)OC4)[C@@H]2O` [16-hydroxytriptolide], the immunosuppressive activity entry in test [1] was “increase in immunosuppressive activity relative to the sum of the effects”.

`CC(C)C12OC1C1OC13C1(C)CCC4=C(COC4=O)C1CCC3(O)C2O` (stereo not drawn) [Example 1, [5aR-(5aα,6α,6aα,7aα,7bβ,8aS*,8bα)]-3,3b,4,5,5a,6,6a,7a,7b,8b,9,10-dodecahydro-5a,6-dihydroxy-8b-methyl-6a-(1-methylethyl)-1H-bisoxireno[4b,5:6,7]phenanthro[1,2-c]furan-1-one]: in the test with IL-2 production, the “IC50 /IL-2” value stood at 0.036 µg/mL (≈ 0.0993 µM). For the same molecule, in test [2] (10 mg/kg/day i.p.), the “% Change in Body Weight (weight gain)” value amounted to 29.9%. Also, in test [3] (10 mg/kg/day i.p.), the “% Inhibition” value is recorded as 90%.

`C[C@]12C=CC(=O)C=C1CC[C@@H]1[C@@H]2[C@@H](O)C[C@@]2(C)[C@H]1CC[C@]2(O)C(=O)CO` [Prednisolone]: the “% Change in Body Weight (weight gain)” value in test [2] (15 mg/kg/day i.p.) came to 14.2%. For the same molecule, the “% Inhibition” value in test [3] (15 mg/kg/day i.p.) turned out to be 100%.

With `CC(C)[C@]12O[C@H]1[C@@H]1O[C@]13[C@]1(O[C@H]1C[C@H]1C4=C(CC[C@@]13C)C(=O)OC4)[C@@H]2O` [Triptolide], the “IC50 /MTT” value in test [4] is given as 5 ng/mL (≈ 0.0139 µM). Also, the “% Change in Body Weight (weight gain)” value in test [2] (0.2 mg/kg/day i.p.) is 17.2%; in test [2] (0.4 mg/kg/day i.p.), 22.0%; in test [2] (0.8 mg/kg/day i.p.) it was 18.0%. Besides, the “% Inhibition” value was found to be 70% in test [3] (0.2 mg/kg/day i.p.), 85% in test [3] (0.4 mg/kg/day i.p.) and 76% in test [3] (0.8 mg/kg/day i.p.). Also, the suppress lymphocyte proliferation result in the test with lymphocyte proliferation is given as “suppress lymphocyte proliferation”.

On to Cyclosporin A, for which the “% Change in Body Weight (weight gain)” value in test [2] (10 mg/kg/day i.p.) worked out at 27.2%. Moreover, the “% Inhibition” value in test [3] (10 mg/kg/day i.p.) was determined as 100%.

For the molecule “[1S (1α, 2β,3α, 3aβ,4aR*,4bα, 11aα)1-3-chloro-1, 2,3,3a,4b,5,6,9,9b, 10,11,11a-dodecahydro-1,2,11a-trihydroxy-4b-methyl-2-(1 -methylethyl)-7H-oxireno[4b,5]phenanthro [1,2-c]furan-7-one [Example 2]”, in test [4], the “IC50 /MTT” value was 550 ng/mL. The “IC50 /IL-2” value in the test on IL-2 production amounted to 0.06 µg/mL.

Regarding “[1S-(1α, 2β, 3α, 3aβ,4aR, 4bα, 11β, 11aα)-3-chloro-1, 2,3,3a,4b,5,6,9,9b, 10,11,11a-dodecahydro-1,11a-dihydroxy-4b-methyl-2-(1-methylethyl)-2,11 -epoxy-7oxireno[4b,5]phenanthro[1,2-c]furan-7-one [Example 3]”, the “IC50 /MTT” value in test [4] was > 1,000 ng/mL. Also, the “IC50 /IL-2” value in the test on IL-2 production is 0.14 µg/mL.
